In US7015228B2, “4-amino-2-(2-pyridyl)pyrimidines as microbicidal active substances” (Ciba Specialty Chemicals Corporation, priority 2001, dated 2006):
In brackets after ≈: the same amount, converted by molar mass.

Assays:
Format in all cases: cell-based
[1] = system: Klebsiella pneumonia ATCC 4352; assay: Minimum inhibitory concentration (MIC), further microorganisms; conditions: Table 8; * = significant inhibition of growth, but not complete inhibition
How it was run: (§1)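 Broth microdilution in DMSO, 1:2 series; inocula adjusted to 1–5×10^6 CFU/ml then diluted 1:100 in CASO broth (bacteria, yeast) or Sabouraud 2% glucose broth (mould). Incubation 48 h at 37° C or 5 days at 28° C; MIC = lowest concentration giving ≦20% growth versus control by OD 620 nm.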

[2] = system: Salmonella choleraesuis ATCC 10708; assay: as above; conditions: Table 8
How it was run: as §1

[3] = system: Trichophyton mentagrophytes ATCC 9533; assay: as above; conditions: Table 8; * = significant inhibition of growth, but not complete inhibition
How it was run: as §1

[4] = system: Candida albicans ATCC 10231; assay: as above; conditions: Table 8; * = significant inhibition of growth, but not complete inhibition
How it was run: as §1

[5] = system: Epidermophyton floccosum DSM 10709; assay: as above; conditions: Table 8; * = significant inhibition of growth, but not complete inhibition
How it was run: as §1

[6] = system: S. epidermidis ATCC 12228; assay: as above; conditions: Table 8; * = significant inhibition of growth, but not complete inhibition
How it was run: as §1

[7] = system: Enterococcus hirae ATCC 10541; assay: as above; conditions: Table 8; * = significant inhibition of growth, but not complete inhibition
How it was run: as §1

[8] = system: Aspergillus niger ATCC 6275; assay: as above; conditions: Table 8; * = significant inhibition of growth, but not complete inhibition
How it was run: as §1

[9] = system: Staphylococcus aureus ATCC 9144; assay: as above; conditions: Table 8; * = significant inhibition of growth, but not complete inhibition
How it was run: as §1

[10] = system: Pseudomonas aeruginosa CIP A-22; assay: as above; conditions: Table 8
How it was run: as §1

[11] = system: Micrococcus luteus ATCC 9341; assay: as above; conditions: Table 8; * = significant inhibition of growth, but not complete inhibition
How it was run: as §1

[12] = system: Escherichia coli NCTC 8196; assay: Minimum inhibitory concentration (MIC) in microtitre plates; conditions: for Minimum inhibitory concentration (MIC) E. coli: Table 7, 48 hours at 37° C., MIC = ≦20% growth compared to control; for Minimum inhibitory concentration (MIC) E. coli NCTC 8196: Table 8, * = significant inhibition of growth, but not complete inhibition
How it was run: (§2)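 Compounds in DMSO, 1:2 dilution series; bacteria at 1–5×10^6 CFU/ml diluted 1:100 in CASO broth. Incubation 48 h at 37° C, growth read as OD 620 nm. MIC is the lowest concentration giving ≤20% growth relative to control; duplicates.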

[13] = system: Staphylococcus hominis DMS 20328; assay: as above; conditions: Table 7; 48 hours at 37° C.; MIC = ≦20% growth compared to control
How it was run: as §2

| Compound | Minimum inhibitory concentration (MIC) Klebsiella pneumonia ATCC 4352 [1] [µg/mL] | Minimum inhibitory concentration (MIC) Salmonella choleraesuis ATCC 10708 [2] [µg/mL] | Minimum inhibitory concentration (MIC) Trichophyton mentagrophytes ATCC 9533 [3] | Minimum inhibitory concentration (MIC) Candida albicans ATCC 10231 [4] | Minimum inhibitory concentration (MIC) Epidermophyton floccosum DSM 10709 [5] | Minimum inhibitory concentration (MIC) S. epidermidis ATCC 12228 [6] | Minimum inhibitory concentration (MIC) Enterococcus hirae ATCC 10541 [7] [µg/mL] | Minimum inhibitory concentration (MIC) Aspergillus niger ATCC 6275 [8] | Minimum inhibitory concentration (MIC) Staphylococcus aureus ATCC 9144 [9] | Minimum inhibitory concentration (MIC) Pseudomonas aeruginosa CIP A-22 [10] [µg/mL] | Minimum inhibitory concentration (MIC) Micrococcus luteus ATCC 9341 [11] [µg/mL] | Minimum inhibitory concentration (MIC) E. coli [12] [µg/mL] | Minimum inhibitory concentration (MIC) E. coli NCTC 8196 [12] [µg/mL] | Minimum inhibitory concentration (MIC) S. hominis [13] [µg/mL] |
| --- | --- | --- | --- | --- | --- | --- | --- | --- | --- | --- | --- | --- | --- | --- |
| COCCc1cc(NCCCCCCCCCCCCN)nc(-c2ccccn2)n1 [compound 79] | >60 | >60 | >60 µg/mL | *30 μg/mL | >60 µg/mL | 30 µg/mL (≈ 72.5 µM) | >60 | >60 µg/mL | *60 μg/mL | >60 | 60 (≈ 145 µM) | 20 (≈ 48.4 µM) | 60 (≈ 145 µM) | 10 (≈ 24.2 µM) |
| CCCCCCCCCCCNc1nc(-c2ccccn2)nc(C)c1CC [compound 89] | 60 (≈ 163 µM) | >60 | *7.5 μg/mL | 15 µg/mL (≈ 40.7 µM) | 15 µg/mL (≈ 40.7 µM) | 7.5 µg/mL (≈ 20.3 µM) | 7.5 (≈ 20.3 µM) | 30 µg/mL (≈ 81.4 µM) | 7.5 µg/mL (≈ 20.3 µM) | >60 | 1.9 (≈ 5.16 µM) | >120 | >60 | 3.75 (≈ 10.2 µM) |
| CCCCCCCCCCCCCCCNc1nc(-c2ccccn2)nc(C)c1CC [compound 90] | >60 | >60 | >120 µg/mL | *60 μg/mL | 60 µg/mL (≈ 141 µM) | *30 μg/mL | 30 (≈ 70.6 µM) | >120 µg/mL | *30 μg/mL | >60 | 15 (≈ 35.3 µM) | 120 (≈ 283 µM) | >60 | 30 (≈ 70.6 µM) |
| CCCCCCCCCCCNc1cc(C)nc(-c2ccccn2)n1 [compound 92] | 120 (≈ 352 µM) | >120 | 15 µg/mL (≈ 44.1 µM) | 15 µg/mL (≈ 44.1 µM) | 15 µg/mL (≈ 44.1 µM) | *1.9 μg/mL | 3.75 (≈ 11 µM) | *60 μg/mL | 3.75 µg/mL (≈ 11 µM) | >120 | <0.5 | >120 | >120 | 3.75 (≈ 11 µM) |
| CCCCCCCCCCCCCCCNc1cc(C)nc(-c2ccccn2)n1 [compound 93] | >120 | >120 | >60 µg/mL | *120 μg/mL | >60 µg/mL | 7.5 µg/mL (≈ 18.9 µM) | 15 (≈ 37.8 µM) | >60 µg/mL | 15 µg/mL (≈ 37.8 µM) | >120 | 1.9 (≈ 4.79 µM) | >120 | >120 | 7.5 (≈ 18.9 µM) |
| CCCCCCCCCCCNc1cc(C(C)C)nc(-c2ccccn2)n1 [compound 98] | 120 (≈ 326 µM) | >120 | >60 µg/mL | 30 µg/mL (≈ 81.4 µM) | 15 µg/mL (≈ 40.7 µM) | 1.9 µg/mL (≈ 5.16 µM) | 1.9 (≈ 5.16 µM) | >60 µg/mL | 1.9 µg/mL (≈ 5.16 µM) | >120 | <0.5 | >120 | 120 (≈ 326 µM) | 3.75 (≈ 10.2 µM) |
| CCCCCCCCCCCCCCCNc1cc(C(C)C)nc(-c2ccccn2)n1 [compound 99] | >60 | >60 | >60 µg/mL | >60 µg/mL | *60 μg/mL | 3.75 µg/mL (≈ 8.83 µM) | 3.75 (≈ 8.83 µM) | >60 µg/mL | 7.5 µg/mL (≈ 17.7 µM) | >60 | 1.0 (≈ 2.35 µM) | >120 | >60 | 15 (≈ 35.3 µM) |
